Assay [1] addresses T1, recombinant human MER (Homo sapiens, UniProt Q12866).
T1 construct: purchased Invitrogen
T1 sequence (Q12866 21-999): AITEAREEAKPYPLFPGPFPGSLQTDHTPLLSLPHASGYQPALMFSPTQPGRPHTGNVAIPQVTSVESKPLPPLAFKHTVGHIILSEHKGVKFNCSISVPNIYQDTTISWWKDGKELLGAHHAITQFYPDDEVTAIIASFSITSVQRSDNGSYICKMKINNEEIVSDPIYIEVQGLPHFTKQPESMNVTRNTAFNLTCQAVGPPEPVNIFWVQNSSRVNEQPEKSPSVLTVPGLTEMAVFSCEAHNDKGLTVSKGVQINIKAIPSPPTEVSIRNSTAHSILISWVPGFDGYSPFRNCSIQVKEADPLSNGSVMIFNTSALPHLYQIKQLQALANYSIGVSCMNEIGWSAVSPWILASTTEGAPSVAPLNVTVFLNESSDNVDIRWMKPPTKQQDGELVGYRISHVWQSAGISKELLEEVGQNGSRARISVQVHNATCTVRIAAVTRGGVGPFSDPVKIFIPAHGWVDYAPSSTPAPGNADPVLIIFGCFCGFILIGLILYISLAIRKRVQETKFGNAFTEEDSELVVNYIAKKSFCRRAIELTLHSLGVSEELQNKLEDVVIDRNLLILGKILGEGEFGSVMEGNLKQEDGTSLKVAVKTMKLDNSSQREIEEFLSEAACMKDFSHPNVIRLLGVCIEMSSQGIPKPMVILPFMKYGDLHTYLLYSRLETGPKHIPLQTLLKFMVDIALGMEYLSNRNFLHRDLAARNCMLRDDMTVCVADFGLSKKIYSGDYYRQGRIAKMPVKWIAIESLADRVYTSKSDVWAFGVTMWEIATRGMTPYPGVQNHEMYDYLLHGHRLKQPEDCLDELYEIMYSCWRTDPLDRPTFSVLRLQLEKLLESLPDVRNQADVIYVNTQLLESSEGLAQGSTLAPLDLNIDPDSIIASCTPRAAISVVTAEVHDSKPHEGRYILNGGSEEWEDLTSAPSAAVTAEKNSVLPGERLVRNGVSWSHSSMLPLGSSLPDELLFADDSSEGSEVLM
Kind of assay: Biochemical potency, HTRF KinEASE-TK kinase assay. To be noted: 1 nM MER, 700 μM ATP. In short, it runs like this: (§1)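 Phosphorylation of a biotinylated tyrosine-kinase peptide (800 nM) by AXL (5 nM) or TYRO3/MER (1 nM) is measured at 700 µM ATP after 2 h at room temperature, following 1 h enzyme–compound preincubation. Signal is the time-resolved FRET ratio, converted to percent activity.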
In general terms: In TR-FRET formats the signal depends on donor and acceptor labels being close together.

The target in assay [2] is T2, recombinant human TYRO3 (Homo sapiens, UniProt Q06418).
T2 construct: purchased Invitrogen
T2 sequence (Q06418 41-890): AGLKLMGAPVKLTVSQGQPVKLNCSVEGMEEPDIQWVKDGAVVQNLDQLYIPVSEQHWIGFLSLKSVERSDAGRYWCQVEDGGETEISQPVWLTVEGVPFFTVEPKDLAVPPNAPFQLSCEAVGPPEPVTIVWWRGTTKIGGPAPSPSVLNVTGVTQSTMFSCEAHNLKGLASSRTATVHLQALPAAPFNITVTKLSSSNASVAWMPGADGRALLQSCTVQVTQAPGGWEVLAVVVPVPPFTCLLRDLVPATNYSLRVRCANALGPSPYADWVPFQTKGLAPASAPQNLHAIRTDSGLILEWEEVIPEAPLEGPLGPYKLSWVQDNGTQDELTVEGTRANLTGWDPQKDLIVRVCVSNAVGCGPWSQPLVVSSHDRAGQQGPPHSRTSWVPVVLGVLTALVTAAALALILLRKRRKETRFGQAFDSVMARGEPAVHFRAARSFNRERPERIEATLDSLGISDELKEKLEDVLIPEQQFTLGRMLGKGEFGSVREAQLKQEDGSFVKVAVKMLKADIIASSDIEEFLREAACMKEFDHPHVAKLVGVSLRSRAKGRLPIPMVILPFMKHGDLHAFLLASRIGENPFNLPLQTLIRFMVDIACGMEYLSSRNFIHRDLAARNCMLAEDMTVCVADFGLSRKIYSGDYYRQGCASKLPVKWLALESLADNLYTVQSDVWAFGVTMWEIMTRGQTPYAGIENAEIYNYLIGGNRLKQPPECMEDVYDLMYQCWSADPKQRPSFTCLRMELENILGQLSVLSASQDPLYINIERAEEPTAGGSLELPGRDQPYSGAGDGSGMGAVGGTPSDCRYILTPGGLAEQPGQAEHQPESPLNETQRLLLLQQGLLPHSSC
Kind of assay: Biochemical potency, HTRF KinEASE-TK kinase assay. To be noted: 1 nM TYRO3, 700 μM ATP. The procedure, abridged:
as §1

Broadly, the IC50 is the concentration at which inhibition is half-maximal. Take `FC(F)c1cccnc1-c1ccc(-c2n[nH]c3ncc(-c4ccc5c(c4)CC[C@@H](N4C6COCC4C6)CC5)cc23)cc1` [Example 89, 6-[(7S)-3-[3-[4-[3-(Difluoromethyl)pyridin-2-yl]phenyl]-1H-pyrazolo[3,4-b]pyridin-5-yl]-6,7,8,9-tetrahydro-5H-benzo[7]annulen-7-yl]-3-oxa-6-azabicyclo[3.1.1]heptane]: the IC50 in assay [1] and in assay [2] was 0.1 to 1 µM in each case.
`C[C@@H]1CCCN1[C@@]1(C)CCc2ccc(-c3cnc4[nH]nc(-c5ccc(-c6ncco6)cc5)c4c3)cc2CC1` [Example 90, 2-(4-{5-[(7S)-7-Methyl-7-[(2R)-2-methylpyrrolidin-1-yl]-6,7,8,9-tetrahydro-5H-benzo[7]annulen-2-yl]-2H-pyrazolo[3,4-b]pyridin-3-yl}phenyl)-1,3-oxazole]: the IC50 in assay [1] and in assay [2] was 0.1 to 1 µM throughout.
Consider `C[C@@H]1CCCN1[C@@]1(C)CCc2ccc(-c3cnc4[nH]nc(-c5ccc(-c6nccs6)cc5)c4c3)cc2CC1` [Example 91, 2-(4-{5-[(7S)-7-Methyl-7-[(2R)-2-methylpyrrolidin-1-yl]-6,7,8,9-tetrahydro-5H-benzo[7]annulen-2-yl]-2H-pyrazolo[3,4-b]pyridin-3-yl}phenyl)-1,3-thiazole], for which the IC50 in assay [1] and in assay [2] was 0.1 to 1 µM in each case.
In the case of `CN(C)C(=O)c1ccccc1-c1ccc(-c2c[nH]c3ncc(-c4ccc5c(c4)CC[C@@H](N4C6COCC4C6)CC5)cc23)cc1` [Example 92, N,N-Dimethyl-4′-{5-[(7S)-7-{3-oxa-6-azabicyclo[3.1.1]heptan-6-yl}-6,7,8,9-tetrahydro-5H-benzo[7]annulen-2-yl]-1H-pyrrolo[2,3-b]pyridin-3-yl}-[1,1′-biphenyl]-2-carboxamide], the IC50 in assay [1] is 0.1 to 1 µM; in assay [2], less than 0.1 µM.
Taken in the same sequence, the figures for `CS(=O)(=O)c1ccccc1-c1ccc(-c2c[nH]c3ncc(-c4ccc5c(c4)CC[C@@H](N4C6COCC4C6)CC5)cc23)cc1` [Example 93, 6-[(7S)-2-(3-{2′-Methanesulfonyl-[1,1′-biphenyl]-4-yl}-1H-pyrrolo[2,3-b]pyridin-5-yl)-6,7,8,9-tetrahydro-5H-benzo[7]annulen-7-yl]-3-oxa-6-azabicyclo[3.1.1]heptane] were 0.1 to 1 µM and 0.1 to 1 µM.
On to `c1cncc(-c2ccc(-c3n[nH]c4ncc(-c5ccc6c(c5)CC[C@@H](N5C7COCC5C7)CC6)cc34)cc2)c1` [Example 157, 6-[(7S)-2-{3-[4-(Pyridin-3-yl)phenyl]-2H-pyrazolo[3,4-b]pyridin-5-yl}-6,7,8,9-tetrahydro-5H-benzo[7]annulen-7-yl]-3-oxa-6-azabicyclo[3.1.1]heptane], for which the IC50 in assay [1] and in assay [2] was more than 1 µM each time.
Take `COc1cc(-c2n[nH]c3ncc(-c4ccc5c(c4)CC[C@@H](N4C6COCC4C6)CC5)cc23)ccc1-c1ccccn1` [Example 160, 6-[(7S)-2-{3-[3-Methoxy-4-(pyridin-2-yl)phenyl]-2H-pyrazolo[3,4-b]pyridin-5-yl}-6,7,8,9-tetrahydro-5H-benzo[7]annulen-7-yl]-3-oxa-6-azabicyclo[3.1.1]heptane]: the IC50 in assay [1] and in assay [2] was 0.1 to 1 µM in each case.
Regarding `COc1cc(-c2c[nH]c3ncc(-c4ccc5c(c4)CC[C@@H](N4C6COCC4C6)CC5)cc23)ccc1-c1ccccn1` [Example 161, 6-[(7S)-2-{3-[3-Methoxy-4-(pyridin-2-yl)phenyl]-1H-pyrrolo[2,3-b]pyridin-5-yl}-6,7,8,9-tetrahydro-5H-benzo[7]annulen-7-yl]-3-oxa-6-azabicyclo[3.1.1]heptane], the IC50 in assay [1] and in assay [2] was 0.1 to 1 µM each time.
For `COc1cccc(-c2ccc(-c3n[nH]c4ncc(-c5ccc6c(c5)CC[C@@H](N5C7COCC5C7)CC6)cc34)cc2)n1` [Example 162, 6-[(7S)-2-{3-[4-(6-Methoxypyridin-2-yl)phenyl]-2H-pyrazolo[3,4-b]pyridin-5-yl}-6,7,8,9-tetrahydro-5H-benzo[7]annulen-7-yl]-3-oxa-6-azabicyclo[3.1.1]heptane], the IC50 in assay [1] and in assay [2] was more than 1 µM in each case.

For the origin of these results see patent US12195482B1 (Arcus Biosciences, Inc., priority 2022, dated 2025).
